Molecules are shown by their SMILES. *1 amine or outer side, *2 acyl side, *3 side chain or, on linkers, in order; H or OH if unused. Where a SMILES comes first, the peptide text is derived from it. Side-chain parts run from the residue outwards. [ ]: non-standard residue; d: D form. The star is where a group is joined. C18 diacid = O=C(O)CCCCCCCCCCCCCCCCC(=O)*; C16 diacid = O=C(O)CCCCCCCCCCCCCCC(=O)*; γGlu = O=C(O)[C@H](CCC(=O)[*:2])N[*:1]; Pentanoyl = CCCCC(=O)*; AEEA = NCCOCCOCC(=O)O Where only a bound is given, the exact number is not on record here.

One test deals with T1, CFR1R receptor (Homo sapiens, UniProt P34998).
T1 construct: host or cells: CHO-K1 (clone 2)
T1 sequence (P34998 24-415): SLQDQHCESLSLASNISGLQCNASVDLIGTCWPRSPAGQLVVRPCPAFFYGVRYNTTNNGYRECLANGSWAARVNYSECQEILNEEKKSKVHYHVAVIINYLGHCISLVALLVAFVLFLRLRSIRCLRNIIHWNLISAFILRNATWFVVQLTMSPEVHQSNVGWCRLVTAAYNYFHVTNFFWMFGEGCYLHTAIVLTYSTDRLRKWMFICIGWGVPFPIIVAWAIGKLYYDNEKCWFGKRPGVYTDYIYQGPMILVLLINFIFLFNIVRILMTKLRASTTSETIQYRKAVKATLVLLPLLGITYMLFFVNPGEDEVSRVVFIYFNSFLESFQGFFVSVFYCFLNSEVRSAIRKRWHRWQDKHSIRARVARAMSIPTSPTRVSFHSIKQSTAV
Description: Activity at anti-target CFR1R receptor, cAMP assay in CRF1R-overexpression CHO-K1 cells. The class given is cell-based. As to conditions: 100% = Sauvagine at 100 nM. The essentials: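 The method mirrors that used with TeloHAEC cells. Here, thawed clone 2 cells seeded at 4000 cells/well are tested, and 100 nM Sauvagine sets the top of the activation scale.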
On the technique in general: Cyclic AMP is a second messenger, typically raised through Gs and lowered through Gi signalling.

The target in another test is T2, human CRF2a receptor (Homo sapiens, UniProt Q13324).
T2 construct: expressed in transfected cells; host or cells: TeloHEAC cells
T2 sequence (Q13324 1-411): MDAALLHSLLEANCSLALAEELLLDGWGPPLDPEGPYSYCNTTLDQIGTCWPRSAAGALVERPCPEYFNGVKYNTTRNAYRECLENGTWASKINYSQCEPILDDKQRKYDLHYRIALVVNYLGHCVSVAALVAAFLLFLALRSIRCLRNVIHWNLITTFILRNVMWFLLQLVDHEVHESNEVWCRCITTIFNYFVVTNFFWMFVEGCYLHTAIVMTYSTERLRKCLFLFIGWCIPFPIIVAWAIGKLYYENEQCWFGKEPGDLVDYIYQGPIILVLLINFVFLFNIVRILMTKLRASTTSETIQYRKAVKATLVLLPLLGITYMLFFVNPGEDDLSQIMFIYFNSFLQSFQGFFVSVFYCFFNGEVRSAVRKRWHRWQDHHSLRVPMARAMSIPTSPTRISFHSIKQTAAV
Description: Activity at human CRF2a receptor, cAMP functional assay in TeloHEAC cells. The class given is cell-based. The conditions noted are these: TeloHEAC cells stably expressing human CRF2a receptor, relative to urocortin 2 (100 nM = 100%). The essentials: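 TeloHEAC cells stably expressing human CRF2a (10000 cells/well, suspended in HBSS/20 mM HEPES with 2 mM IBMX) were exposed to compounds for 30 min at 37 °C. cAMP was read as the 665/620 nm fluorescence ratio after 1 h at room temperature. EC50 was derived relative to 100 nM urocortin 2, set as 100%.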

Regarding `CCCCC(=O)N[C@H](C(=O)N[C@@H](CC(C)C)C(=O)N[C@@H](CO)C(=O)N[C@@H](CC(C)C)C(=O)N[C@@H](CC(=O)O)C(=O)N[C@@H](C(=O)N1CCC[C@H]1C(=O)N[C@H](C(=O)N[C@@H](CCCCN)C(=O)N[C@@H](CC(C)C)C(=O)N[C@@H](CCCCNC(=O)CC[C@H](NC(=O)CCCCCCCCCCCCCCC(=O)O)C(=O)O)C(=O)N[C@@H](CCC(N)=O)C(=O)N[C@H](C(=O)N[C@@H](CC(C)C)C(=O)N[C@@H](CC(C)C)C(=O)N[C@@H](CCCCN)C(=O)N[C@@H](CCC(N)=O)C(=O)N[C@@H](CCC(=O)O)C(=O)N[C@@H](CCCNC(=N)N)C(=O)N[C@@H](CCC(N)=O)C(=O)N[C@@H](CCCCN)C(=O)N[C@@H](CCCCN)C(=O)N[C@@H](CCC(N)=O)C(=O)N[C@@H](CCCNC(=N)N)C(=O)N[C@@H](CCC(=O)O)C(=O)N[C@@H](CCC(N)=O)C(=O)N[C@@H](C)C(=O)N[C@@H](CCC(=O)O)C(=O)N[C@@H](CCCCN)C(=O)N[C@@H](CC(N)=O)C(=O)N[C@@H](CCCCN)C(=O)N[C@@H](CCC(N)=O)C(=O)N[C@H](C(=O)N[C@@H](CC(C)C)C(=O)N[C@@H](CCC(=O)O)C(=O)N[C@@H](CCC(N)=O)C(=O)N[C@H](C(N)=O)C(C)C)[C@@H](C)CC)[C@@H](C)CC)[C@@H](C)CC)C(C)C)C(C)C` [compound 8] (Pentanoyl-VLSLD[dV]PIKLK([γGlu-C16 diacid])QILLKQERQKKQREQAEKNKQILEQV-NH2), the “Emax (% I)” value on CFR1R receptor came to 50 % I. The concentration for a half-maximal effect (EC50) (in general, the concentration needed to bring the measured effect to its halfway point) on human CRF2a receptor was determined as 0.14 nM.

`CC[C@H](C)[C@H](NC(C)=O)C(=O)N[C@H](C(=O)N[C@@H](CC(C)C)C(=O)N[C@@H](CO)C(=O)N[C@@H](CC(C)C)C(=O)N[C@@H](CC(=O)O)C(=O)N[C@@H](C(=O)N1CCC[C@H]1C(=O)N[C@H](C(=O)N[C@@H](CCCCN)C(=O)N[C@@H](CC(C)C)C(=O)N[C@@H](CCCCNC(=O)COCCOCCNC(=O)COCCOCCNC(=O)CC[C@H](NC(=O)CCCCCCCCCCCCCCCCC(=O)O)C(=O)O)C(=O)N[C@@H](CCCCN)C(=O)N[C@H](C(=O)N[C@@H](CC(C)C)C(=O)N[C@@H](CC(C)C)C(=O)N[C@@H](CCC(=O)O)C(=O)N[C@@H](CCC(N)=O)C(=O)N[C@@H](CCC(=O)O)C(=O)N[C@@H](CCCCN)C(=O)N[C@@H](CCC(N)=O)C(=O)N[C@@H](CCCCN)C(=O)N[C@@H](CCCCN)C(=O)N[C@@H](CCC(N)=O)C(=O)N[C@@H](CCCNC(=N)N)C(=O)N[C@@H](CCC(=O)O)C(=O)N[C@@H](CCC(N)=O)C(=O)N[C@@H](C)C(=O)N[C@@H](CCC(=O)O)C(=O)N[C@H](C(=O)N[C@@H](CC(N)=O)C(=O)N[C@H](C(=O)N[C@@H](CCC(N)=O)C(=O)N[C@H](C(=O)N[C@@H](CC(C)C)C(=O)N[C@@H](C)C(=O)N[C@@H](CCC(N)=O)C(=O)N[C@H](C(N)=O)C(C)C)[C@@H](C)CC)C(C)C)[C@@H](C)O)[C@@H](C)CC)[C@@H](C)CC)C(C)C)C(C)C` [compound 103] (Ac-IVLSLD[dV]PIKLK([AEEA-AEEA-γGlu-C18 diacid])KILLEQEKQKKQREQAETNVQILAQV-NH2): the “Emax (% I)” value at CFR1R receptor was 3 % I. For the same compound, the EC50 at CFR1R receptor (cAMP) is over 250 nM; at human CRF2a receptor, 3.09 nM.

The record behind these values is patent US20260001928A1 (CORTERIA PHARMACEUTICALS, priority 2022, published 2026).
